Results on 3 molecules are retold here after patent publication US8575091B1, “Amylin analogues and pharmaceutical compositions thereof” (Novo Nordisk A/S, priority 2012, dated 2013).

Series [1] is described as follows: Assay (III) ThT fibrillation assay for physical stability. The series is classed as physicochemical. The source says:
Assay (III)—ThT Fibrillation Assays for the Assessment of Physical Stability of Protein Formulations Low physical stability of a polypeptide may lead to amyloid fibril formation, which is observed as well-ordered, thread-like macromolecular structures in the sample eventually resulting in gel formation. This has traditionally been measured by visual inspection of the sample. However, that kind of measurement is very subjective and depending on the observer. Therefore, the application of a small molecule indicator probe is much more advantageous. Thioflavin T (ThT) is such a probe and has a distinct fluorescence signature when binding to fibrils [Naiki et al. (1989) Anal. […] LeVine (1999) Methods. Enzymol. […], 274-284]. The time course for fibril formation can be described by a sigmoidal curve with the following expression [Nielsen et al. (2001) Biochemistry 40, 6036-6046]: […] Here, F is the ThT fluorescence at the time t. The constant t0 is the time needed to reach 50% of maximum fluorescence. […] Incubation and Fluorescence Measurement Incubation at given temperature, shaking and measurement of the ThT fluorescence emission were done in a Fluoroskan Ascent FL fluorescence platereader or Varioskan platereader (Thermo Labsystems). […] Fluorescence measurement was done using excitation through a 444 nm filter and measurement of emission through a 485 nm filter. […] The plate was measured every 20 minutes for a desired period of time. […] However, since full sigmodial curves in this case are not always achieved during the measurement time, the degree of fibrillation is expressed as ThT fluorescence tabulated as the mean of the samples and shown with the standard deviation at various time points. Measurement of Initial and Final Concentrations The polypeptide concentration in each of the tested formulations were measured both before application in the ThT fibrillation assay (“Initial”) and after completion of the ThT fibrillation (“After ThT assay”). Concentrations were determined by reverse HPLC methods using a pramlintide standard as a reference. […]

For series [2], the target named is T1, human calcitonin receptor (Homo sapiens, UniProt P30988).
T1 construct: expressed in transfected cells
T1 sequence (P30988 25-474): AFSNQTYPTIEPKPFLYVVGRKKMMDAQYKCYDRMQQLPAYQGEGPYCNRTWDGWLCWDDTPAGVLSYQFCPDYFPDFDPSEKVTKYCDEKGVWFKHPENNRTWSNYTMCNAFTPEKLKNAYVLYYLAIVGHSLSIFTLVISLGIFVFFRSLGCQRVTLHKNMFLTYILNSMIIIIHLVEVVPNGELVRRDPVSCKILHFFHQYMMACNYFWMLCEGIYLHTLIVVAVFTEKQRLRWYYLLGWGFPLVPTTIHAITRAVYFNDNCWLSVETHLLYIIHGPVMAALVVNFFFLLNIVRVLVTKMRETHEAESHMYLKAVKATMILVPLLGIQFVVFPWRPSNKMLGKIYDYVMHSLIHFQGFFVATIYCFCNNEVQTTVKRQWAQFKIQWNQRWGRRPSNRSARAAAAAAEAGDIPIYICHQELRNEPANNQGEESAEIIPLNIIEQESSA
Put plainly: Assay (II)a functional assay, human calcitonin receptor (CRE luciferase, BHK cells).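 Note: luminescence from a CRE-driven luciferase reporter, read by single photon counting after cells were exposed to test samples for 3 h at 37 °C under 5% CO2.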 To be noted: read-out: hCTR funct. EC50. The series is classed as cell-based.

Another series deals with T2, human amylin receptor (Homo sapiens, UniProt O60896+P30988).
T2 construct: expressed in transfected cells
T2 sequence (P30988 25-474): T1 sequence (P30988 25-474)
T2 sequence (O60896 24-148 partner): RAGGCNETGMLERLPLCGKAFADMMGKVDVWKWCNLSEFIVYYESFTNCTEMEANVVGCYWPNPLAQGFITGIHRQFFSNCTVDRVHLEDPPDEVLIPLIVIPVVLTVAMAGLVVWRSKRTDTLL
Put plainly: Assay (V) binding to the human amylin receptor (SPA, 125I-rat amylin). To be noted: human amylin receptor membranes, SPA; read-out: hAmylin-R bind IC50. A digest of the protocol:
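IC50, taken as receptor affinity, came from one-site binding competition analysis of scintillation proximity counts. Amylin 3(a)/CRE-luc cell membranes (35 ng/μL final) were mixed with SPA beads (0.05 mg/well) in 50 mM Hepes pH 7.4 containing CaCl2, MgCl2, 0.1% OA and 0.02% Tween20.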

Series [3] addresses T1, human calcitonin receptor. In words: Assay (VII) binding to the human calcitonin receptor (SPA, 125I-Calcitonin).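 Note: cell membranes coupled to SPA beads, competitive displacement read by scintillation counting, IC50 derived from a one-site competition fit as a measure of receptor affinity.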 To be noted: read-out: hCTR bind IC50.
The target of series [4] is T3, human amylin receptor (amylin 3(a) receptor: human calcitonin receptor + RAMP-3) (Homo sapiens, UniProt O60896+P30988).
T3 construct: expressed in transfected cells
T3 sequence (P30988 25-474): T1 sequence (P30988 25-474)
T3 sequence (O60896 24-148 partner): T2 sequence (O60896 24-148 partner)
Put plainly: Assay (II)a functional assay, human amylin receptor (CRE luciferase, BHK cells). The series is classed as cell-based.

SMILES strings stand for the structures. Numbered stars: 1 amine (or outer) side, 2 acyl side, 3 side chain; on linkers, the order of the positions; unused ones are H or OH. Bridge positions count the residues as written; N and C are the ends. Side chains are listed from the residue outwards. Peptide text beside a SMILES is read from it. * marks the point of attachment. C20 diacid = O=C(O)CCCCCCCCCCCCCCCCCCC(=O)*; γGlu = O=C(O)[C@H](CCC(=O)[*:2])N[*:1]; AEEA = NCCOCCOCC(=O)O

One may read the EC50 as the concentration at which the effect is half-maximal. A word on the IC50: it is the midpoint of a concentration-inhibition curve. For `CC[C@H](C)[C@H](NC(=O)[C@H](C)NC(=O)CNC(=O)[C@H](Cc1ccccc1)NC(=O)[C@H](CC(N)=O)NC(=O)[C@@H]1CCCN1C(=O)[C@H](CO)NC(=O)[C@H](CO)NC(=O)[C@H](Cc1c[nH]cn1)NC(=O)[C@H](CCCNC(=N)N)NC(=O)[C@H](CC(C)C)NC(=O)[C@H](Cc1ccccc1)NC(=O)[C@H](CO)NC(=O)[C@H](C)NC(=O)[C@H](CC(C)C)NC(=O)[C@H](CCCNC(=N)N)NC(=O)[C@H](CCC(N)=O)NC(=O)[C@@H](NC(=O)[C@H](C)NC(=O)[C@@H]1CSSC[C@H](NC(=O)[C@@H](N)CCCCNC(=O)COCCOCCNC(=O)CC[C@H](NC(=O)CCCCCCCCCCCCCCCCCCC(=O)O)C(=O)O)C(=O)N[C@@H](CC(N)=O)C(=O)N[C@@H]([C@@H](C)O)C(=O)N[C@@H](C)C(=O)N[C@@H]([C@@H](C)O)C(=O)N1)[C@@H](C)O)C(=O)N1CCC[C@H]1C(=O)N[C@@H](CO)C(=O)N[C@@H](CO)C(=O)N[C@H](C(=O)N1CCC[C@H]1C(=O)N[C@H](C(=O)NCC(=O)N[C@@H](CO)C(=O)N[C@@H](CC(N)=O)C(=O)N[C@H](C(=O)N[C@@H](Cc1ccc(O)cc1)C(N)=O)[C@@H](C)O)C(C)C)[C@@H](C)O` [Example 73] (H-K([AEEA-γGlu-C20 diacid])CNTATCATQRLASFLRHSSPNFGAIPSSTPVGSNTY-NH2; disulfide 2-7), the “ThT pH 4.0 recovery (%)” value in series [1] came to 1%. Besides, the EC50 in series [2] is 0.961 nM; in series [4] (functional assay, human amylin receptor, read-out: hAmylin-R funct. EC50), 0.085 nM. For the same molecule, the IC50 on human amylin receptor is 0.104 nM; in series [3], 5.38 nM.

Turning to `CC[C@H](C)[C@H](NC(=O)[C@H](C)NC(=O)CNC(=O)[C@H](Cc1ccccc1)NC(=O)[C@H](CC(N)=O)NC(=O)[C@@H]1CCCN1C(=O)[C@H](CO)NC(=O)[C@H](CO)NC(=O)[C@H](Cc1c[nH]cn1)NC(=O)[C@H](CCCNC(=N)N)NC(=O)[C@H](CC(C)C)NC(=O)[C@H](Cc1ccccc1)NC(=O)[C@H](CCCCN)NC(=O)[C@H](C)NC(=O)[C@H](CC(C)C)NC(=O)[C@H](CCCNC(=N)N)NC(=O)[C@H](CCC(N)=O)NC(=O)[C@@H](NC(=O)[C@H](C)NC(=O)[C@@H]1CSSC[C@H](NC(=O)[C@@H](N)CCCCNC(=O)COCCOCCNC(=O)CC[C@H](NC(=O)CCCCCCCCCCCCCCCCCCC(=O)O)C(=O)O)C(=O)N[C@@H](CC(N)=O)C(=O)N[C@@H]([C@@H](C)O)C(=O)N[C@@H](C)C(=O)N[C@@H]([C@@H](C)O)C(=O)N1)[C@@H](C)O)C(=O)N1CCC[C@H]1C(=O)N[C@@H](CO)C(=O)N[C@@H](CO)C(=O)N[C@H](C(=O)N1CCC[C@H]1C(=O)N[C@H](C(=O)NCC(=O)N[C@@H](CO)C(=O)N[C@@H](CC(N)=O)C(=O)N[C@H](C(=O)N[C@@H](Cc1ccc(O)cc1)C(N)=O)[C@@H](C)O)C(C)C)[C@@H](C)O` [Example 74] (H-K([AEEA-γGlu-C20 diacid])CNTATCATQRLAKFLRHSSPNFGAIPSSTPVGSNTY-NH2; disulfide 2-7 (inferred); N-terminus and C-terminus assumed), in series [1], the “ThT pH 4.0 recovery (%)” value stood at 87%.

For the molecule `CC[C@H](C)[C@H](NC(=O)[C@H](C)NC(=O)CNC(=O)[C@H](Cc1ccccc1)NC(=O)[C@H](CC(N)=O)NC(=O)[C@@H]1CCCN1C(=O)[C@H](CO)NC(=O)[C@H](CO)NC(=O)[C@H](Cc1c[nH]cn1)NC(=O)[C@H](CCCNC(=N)N)NC(=O)[C@H](CC(C)C)NC(=O)[C@H](Cc1ccccc1)NC(=O)[C@H](C)NC(=O)[C@H](C)NC(=O)[C@H](CC(C)C)NC(=O)[C@H](CCCNC(=N)N)NC(=O)[C@H](CCC(N)=O)NC(=O)[C@@H](NC(=O)[C@H](C)NC(=O)[C@@H]1CSSC[C@H](NC(=O)[C@H](CCCNC(=N)N)NC(=O)CNC(=O)CC[C@H](NC(=O)CCCCCCCCCCCCCCCCCCC(=O)O)C(=O)O)C(=O)N[C@@H](CC(N)=O)C(=O)N[C@@H]([C@@H](C)O)C(=O)N[C@@H](C)C(=O)N[C@@H]([C@@H](C)O)C(=O)N1)[C@@H](C)O)C(=O)N1CCC[C@H]1C(=O)N[C@@H](CO)C(=O)N[C@@H](CO)C(=O)N[C@H](C(=O)N[C@@H](CC(N)=O)C(=O)N[C@H](C(=O)NCC(=O)N1CCC[C@H]1C(=O)N[C@@H](CC(N)=O)C(=O)N[C@H](C(=O)N[C@@H](Cc1ccc(O)cc1)C(N)=O)[C@@H](C)O)C(C)C)[C@@H](C)O` [Example 103] ({C20 diacid-γGlu}-GRCNTATCATQRLAAFLRHSSPNFGAIPSSTNVGPNTY-NH2; disulfide 3-8 (inferred); C-terminus assumed), in series [1], the “ThT pH 4.0 recovery (%)” value is 82%. In series [4] (Table 6, human functional selectivity (hCTR EC50 / hAmylin-R EC50)), the “Ratio hCT/hAmylin funct.” value came out at 2.1.
